According to ChEMBL document CHEMBL1131405, “Novel bisphosphonate inhibitors of phosphoglycerate kinase” (Bioorg Med Chem Lett, 1998):

What was measured:
[1] = Dissociation constant (pKa4); assay type: physicochemical; settings: read-out: pKa4
[2] = Dissociation constant (pKa3); assay type: physicochemical; settings: read-out: pKa3

Structure (SMILES)	pKa [1]	pKa [2]
O=P(O)(O)Cc1cccc(CP(=O)(O)O)c1	7.71	7.11
O=P(O)(O)C(F)c1cccc(C(F)P(=O)(O)O)n1 (stereo unspecified)	5.3	5.18
O=P(O)(O)Cc1cccc(CP(=O)(O)O)n1	8.49	6.7
O=P(O)(O)Cc1cccc(C(O)P(=O)(O)O)c1 (stereo unspecified)	7.29	6.98
Cc1cc(C)c(CP(=O)(O)O)cc1CP(=O)(O)O	7.78	7.24
O=P(O)(O)C(F)(F)c1cccc(C(F)(F)P(=O)(O)O)n1	5.3	5.18
O=P(O)(O)Cc1ccccc1CP(=O)(O)O	8.53	7.1
O=P(O)(O)Cc1cccc(P(=O)(O)O)c1	7.61	6.47
Cc1cc(C)c(CP(=O)(O)O)c(C)c1CP(=O)(O)O	8.16	7.4
O=P(O)(O)C(F)c1ccc(C(F)P(=O)(O)O)cc1 (stereo unspecified)	6.37	6.02
O=P(O)(O)c1cccc(C(F)P(=O)(O)O)c1 (stereo unspecified)	6.99	5.8
O=P(O)(O)c1cccc(C(O)P(=O)(O)O)c1 (stereo unspecified)	7.46	6.55
Cc1cc(C)c(C(F)(F)P(=O)(O)O)cc1C(F)(F)P(=O)(O)O	5.92	5.33
O=P(O)(O)C(O)c1cccc(C(O)P(=O)(O)O)c1 (stereo unspecified)	7.23	6.78
O=P(O)(O)Cc1ccc(C(F)P(=O)(O)O)cc1 (stereo unspecified)	7.72	6.3
O=P(O)(O)Cc1ccc(C(F)(F)P(=O)(O)O)cc1	6.63	5.27
O=P(O)(O)c1cccc(C(F)(F)P(=O)(O)O)c1	6.9	5.61
C=C(CP(=O)(O)O)CP(=O)(O)O	7.45	6.45
O=P(O)(O)C(F)c1cccc(C(F)P(=O)(O)O)c1 (stereo unspecified)	6.37	6.01
O=P(O)(O)C(F)(F)c1ccc(C(F)(F)P(=O)(O)O)cc1	5.6	4.82
O=P(O)(O)C(O)c1cccc(C(O)P(=O)(O)O)n1 (stereo unspecified)	7.58	6.57
O=P(O)(O)Cc1ccc(CP(=O)(O)O)cc1	7.49	7.03
O=P(O)(O)Cc1cccc(C(F)(F)P(=O)(O)O)c1	5.84	5.04
